Measurements: PubChem BioAssay AID1963985 (Molecular Pharmacology Branch, DTP, NCI, 2024)

Test system: 252836-082-R-J2-PDC tumor spheroids, viability
Assay: Anticancer human tumor 252836-082-R-J2-PDC patient-derived head and neck squamous cell carcinoma cell line growth inhibition [PI3K]
Details: spheroids with HUVEC and MSC; for viability, T/C: stronger effect = lower value
Summary of the method: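 Tumor cells grown as multi-cell spheroids with HUVEC endothelial cells and MSC fibroblast-like stroma were treated with targeted agents combined with inavolisib, alpelisib, duvelisib or copanlisib. Doses fell in half-log steps from near clinical Cmax, else from 10 microM. Viability was measured.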

[1] = curve of first compound, second compound 0.0316 µM
[2] = curve of first compound, second compound 0.1 µM
[3] = curve of first compound, second compound 0.316 µM
[4] = curve of first compound, second compound 1 µM
[5] = second compound 0.0316 µM, first compound 0.0316 µM
[6] = second compound 0.0316 µM, first compound 0.1 µM
[7] = second compound 0.1 µM, first compound 0.0316 µM
[8] = second compound 0.1 µM, first compound 0.1 µM
[9] = second compound 0.316 µM, first compound 0.0316 µM
[10] = second compound 0.316 µM, first compound 0.1 µM
[11] = second compound 1 µM, first compound 0.0316 µM
[12] = second compound 1 µM, first compound 0.1 µM
[13] = curve of first compound, second compound 3.16 µM
[14] = curve of first compound, second compound 10 µM
[15] = second compound 0.0316 µM, first compound 0.316 µM
[16] = second compound 0.0316 µM, first compound 1 µM
[17] = second compound 0.0316 µM, first compound 3.16 µM
[18] = second compound 0.0316 µM, first compound 10 µM
[19] = second compound 0.1 µM, first compound 0.316 µM
[20] = second compound 0.1 µM, first compound 1 µM
[21] = second compound 0.1 µM, first compound 3.16 µM
[22] = second compound 0.1 µM, first compound 10 µM
[23] = second compound 0.316 µM, first compound 0.316 µM
[24] = second compound 0.316 µM, first compound 1 µM
[25] = second compound 0.316 µM, first compound 3.16 µM
[26] = second compound 0.316 µM, first compound 10 µM
[27] = second compound 1 µM, first compound 0.316 µM
[28] = second compound 1 µM, first compound 1 µM
[29] = second compound 1 µM, first compound 3.16 µM
[30] = second compound 1 µM, first compound 10 µM
[31] = second compound 3.16 µM, first compound 0.0316 µM
[32] = second compound 3.16 µM, first compound 0.1 µM
[33] = second compound 3.16 µM, first compound 0.316 µM
[34] = second compound 3.16 µM, first compound 1 µM
[35] = second compound 3.16 µM, first compound 3.16 µM
[36] = second compound 3.16 µM, first compound 10 µM
[37] = second compound 10 µM, first compound 0.0316 µM
[38] = second compound 10 µM, first compound 0.1 µM
[39] = second compound 10 µM, first compound 0.316 µM
[40] = second compound 10 µM, first compound 1 µM
[41] = second compound 10 µM, first compound 3.16 µM
[42] = second compound 10 µM, first compound 10 µM
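Also: spheroids exposed to agents for seven days before readout.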
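For viability, T/C in this document: percent of vehicle DMSO control viability so 100% = untreated growth.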

Structure (SMILES): CC(=O)c1c(C)c2cnc(Nc3ccc(N4CCNCC4)cn3)nc2n(C2CCCC2)c1=O + CC(Nc1ccc2c(c1)OCCn1cc(N3C(=O)OCC3C(F)F)nc1-2)C(N)=O
- IC50 (curve of first compound, second compound 0.00316 µM): > 100 nM
- IC50 (curve of first compound, second compound 0.01 µM): > 100 nM
- IC50 [1]: > 100 nM
- IC50 [2]: > 100 nM
- IC50 [3]: > 100 nM
- IC50 [4]: < 0.316 nM
- viability, T/C (second compound 0.00316 µM, first compound 0.000316 µM): 102%
- viability, T/C (second compound 0.00316 µM, first compound 0.001 µM): 91.6%
- viability, T/C (second compound 0.00316 µM, first compound 0.00316 µM): 94.5%
- viability, T/C (second compound 0.00316 µM, first compound 0.01 µM): 89.8%
- viability, T/C (second compound 0.00316 µM, first compound 0.0316 µM): 98.2%
- viability, T/C (second compound 0.00316 µM, first compound 0.1 µM): 105%
- viability, T/C (second compound 0.01 µM, first compound 0.000316 µM): 97.1%
- viability, T/C (second compound 0.01 µM, first compound 0.001 µM): 84.9%
- viability, T/C (second compound 0.01 µM, first compound 0.00316 µM): 93.7%
- viability, T/C (second compound 0.01 µM, first compound 0.01 µM): 89.2%
- viability, T/C (second compound 0.01 µM, first compound 0.0316 µM): 83.9%
- viability, T/C (second compound 0.01 µM, first compound 0.1 µM): 87.9%
- viability, T/C (second compound 0.0316 µM, first compound 0.000316 µM): 90.8%
- viability, T/C (second compound 0.0316 µM, first compound 0.001 µM): 76.1%
- viability, T/C (second compound 0.0316 µM, first compound 0.00316 µM): 74.1%
- viability, T/C (second compound 0.0316 µM, first compound 0.01 µM): 70.7%
- viability, T/C [5]: 81.4%
- viability, T/C [6]: 82.4%
- viability, T/C (second compound 0.1 µM, first compound 0.000316 µM): 68.8%
- viability, T/C (second compound 0.1 µM, first compound 0.001 µM): 68.9%
- viability, T/C (second compound 0.1 µM, first compound 0.00316 µM): 69.8%
- viability, T/C (second compound 0.1 µM, first compound 0.01 µM): 70.8%
- viability, T/C [7]: 66.5%
- viability, T/C [8]: 67.5%
- viability, T/C (second compound 0.316 µM, first compound 0.000316 µM): 54.9%
- viability, T/C (second compound 0.316 µM, first compound 0.001 µM): 53.6%
- viability, T/C (second compound 0.316 µM, first compound 0.00316 µM): 65.1%
- viability, T/C (second compound 0.316 µM, first compound 0.01 µM): 50.7%
- viability, T/C [9]: 62.2%
- viability, T/C [10]: 55.7%
- viability, T/C (second compound 1 µM, first compound 0.000316 µM): 47.5%
- viability, T/C (second compound 1 µM, first compound 0.001 µM): 45.6%
- viability, T/C (second compound 1 µM, first compound 0.00316 µM): 41.9%
- viability, T/C (second compound 1 µM, first compound 0.01 µM): 42.4%
- viability, T/C [11]: 44.9%
- viability, T/C [12]: 45.1%

Structure (SMILES): CNC(=O)c1ccc(N2C(=S)N(c3ccc(C#N)c(C(F)(F)F)c3)C(=O)C2(C)C)cc1F + CC(Nc1ncnc2nc[nH]c12)c1cc2cccc(Cl)c2c(=O)n1-c1ccccc1
- IC50 [1]: > 10000 nM
- IC50 [2]: > 10000 nM
- IC50 [3]: > 10000 nM
- IC50 [4]: > 10000 nM
- IC50 [13]: > 10000 nM
- IC50 [14]: > 10000 nM
- viability, T/C [5]: 103%
- viability, T/C [6]: 83.9%
- viability, T/C [15]: 91.7%
- viability, T/C [16]: 85.1%
- viability, T/C [17]: 98.2%
- viability, T/C [18]: 93.4%
- viability, T/C [7]: 86.4%
- viability, T/C [8]: 83.5%
- viability, T/C [19]: 113%
- viability, T/C [20]: 91.2%
- viability, T/C [21]: 86.2%
- viability, T/C [22]: 78.6%
- viability, T/C [9]: 102%
- viability, T/C [10]: 79.5%
- viability, T/C [23]: 90.5%
- viability, T/C [24]: 90.2%
- viability, T/C [25]: 88.7%
- viability, T/C [26]: 78%
- viability, T/C [11]: 80.9%
- viability, T/C [12]: 94.9%
- viability, T/C [27]: 90.9%
- viability, T/C [28]: 89.6%
- viability, T/C [29]: 94%
- viability, T/C [30]: 80.6%
- viability, T/C [31]: 85.7%
- viability, T/C [32]: 73.2%
- viability, T/C [33]: 75.7%
- viability, T/C [34]: 74.3%
- viability, T/C [35]: 86.4%
- viability, T/C [36]: 62.2%
- viability, T/C [37]: 63%
- viability, T/C [38]: 71.8%
- viability, T/C [39]: 70.9%
- viability, T/C [40]: 70.5%
- viability, T/C [41]: 69.8%
- viability, T/C [42]: 59.3%

Structure (SMILES): C=CC(=O)N1CCN(c2nc(=O)n(-c3c(C)ccnc3C(C)C)c3nc(-c4c(O)cccc4F)c(F)cc23)C(C)C1 (stereo unspecified)
- viability, T/C (compound 0.0316 µM): 98% [middle of 4 runs]
- viability, T/C (compound 0.1 µM): 95.6% [middle of 4 runs]
- viability, T/C (compound 10 µM): 99.2% [middle of 4 runs]
- IC50 (curve of compound): > 10000 nM

Structure (SMILES): CC1(C)CCC(Nc2ncc(C(F)(F)F)c(-c3c[nH]c4c(P(C)(C)=O)c(C#N)ccc34)n2)CN1 (stereo unspecified) + CC(Nc1ncnc2nc[nH]c12)c1cc2cccc(Cl)c2c(=O)n1-c1ccccc1
- IC50 [1]: < 31.6 nM
- IC50 [2]: < 31.6 nM
- IC50 [3]: < 31.6 nM
- IC50 [4]: < 31.6 nM
- IC50 [13]: < 31.6 nM
- IC50 [14]: < 31.6 nM
- viability, T/C [5]: 31.1%
- viability, T/C [6]: 26.6%
- viability, T/C [15]: 28.6%
- viability, T/C [16]: 32.2%
- viability, T/C [17]: 34.7%
- viability, T/C [18]: 4.13%
- viability, T/C [7]: 34.2%
- viability, T/C [8]: 27.4%
- viability, T/C [19]: 31.6%
- viability, T/C [20]: 26.4%
- viability, T/C [21]: 36.9%
- viability, T/C [22]: 5.65%
- viability, T/C [9]: 32.4%
- viability, T/C [10]: 32.9%
- viability, T/C [23]: 27.7%
- viability, T/C [24]: 30.1%
- viability, T/C [25]: 33.8%
- viability, T/C [26]: 4.38%
- viability, T/C [11]: 27.9%
- viability, T/C [12]: 31.8%
- viability, T/C [27]: 32.4%
- viability, T/C [28]: 28.7%
- viability, T/C [29]: 33.4%
- viability, T/C [30]: 4.12%
- viability, T/C [31]: 26.3%
- viability, T/C [32]: 26.2%
- viability, T/C [33]: 28%
- viability, T/C [34]: 31.9%
- viability, T/C [35]: 25.9%
- viability, T/C [36]: 3.79%
- viability, T/C [37]: 27.2%
- viability, T/C [38]: 21.5%
- viability, T/C [39]: 26%
- viability, T/C [40]: 23%
- viability, T/C [41]: 22.6%
- viability, T/C [42]: 1.83%

Structure (SMILES): CC(Nc1ccc2c(c1)OCCn1cc(N3C(=O)OCC3C(F)F)nc1-2)C(N)=O (stereo unspecified)
- viability, T/C (compound 0.00316 µM): 93% [middle of 8 runs]
- viability, T/C (compound 0.01 µM): 96.8% [middle of 8 runs]
- viability, T/C (compound 0.0316 µM): 81% [middle of 8 runs]
- viability, T/C (compound 0.1 µM): 65.7% [middle of 8 runs]
- viability, T/C (compound 0.316 µM): 51.8% [middle of 8 runs]
- viability, T/C (compound 1 µM): 47.7% [middle of 8 runs]
